Patent US8518913B2, “Phosphorous derivatives as chemokine receptor modulators” (Allergan, Inc., priority 2010, dated 2013)
Read-outs that look alike come from different tables or passages of the source.

Target: T1, CCR2 receptor (Homo sapiens, UniProt P41597)
T1 construct: expressed in transfected cells
Experiment: CCR2 calcium activity assay on FLIPR Tetra in HEK-Gqi5 cells stably expressing CCR2
Assay type: cell-based
Procedure: HEK-Gqi5 cells stably expressing CCR2 were cultured in (DMEM high glucose, 10% FBS, 1% PSA, 400 μg/ml geneticin and 50 μg/ml hygromycin. Appropriate positive control chemokines (MCP-1, MIP1A or RANTES) was used as the positive control agonist for screening compound-induced calcium activity assayed on the FLIPR^Tetra. The drug plates were prepared in 384-well microplates using the EP3 and the MultiPROBE robotic liquid handling systems. Compounds were synthesized and tested for CCR2 activity.

[1] = HEK-Gqi5 cells stably expressing CCR2, calcium activity, FLIPR Tetra
[2] = HEK-Gqi5 cells stably expressing CCR2, calcium activity, FLIPR Tetra, read-out: CCR2 IC50

T1 sequence (P41597 whole entry): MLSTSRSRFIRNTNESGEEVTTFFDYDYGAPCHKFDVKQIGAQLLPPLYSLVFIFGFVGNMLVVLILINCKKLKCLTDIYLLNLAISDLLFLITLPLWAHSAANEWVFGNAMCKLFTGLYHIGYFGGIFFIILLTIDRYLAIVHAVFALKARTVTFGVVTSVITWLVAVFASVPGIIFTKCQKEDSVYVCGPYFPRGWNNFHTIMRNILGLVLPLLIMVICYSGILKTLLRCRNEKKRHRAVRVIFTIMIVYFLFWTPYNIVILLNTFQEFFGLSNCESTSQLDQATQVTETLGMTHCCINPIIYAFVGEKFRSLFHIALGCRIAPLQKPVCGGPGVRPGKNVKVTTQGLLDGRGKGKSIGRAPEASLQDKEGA

| CCR2 % ANTAGONISM [1] [%] | IC50 [2] [nM] | SMILES | IC50 [nM] |
| --- | --- | --- | --- |
| 87 | 25 | CP(=O)(c1ccc(Cl)cc1NS(=O)(=O)c1ccc(Cl)c(C(F)(F)F)c1)N1CCC(=O)CC1 (centres unmarked) [Compound 7, 4-Chloro-N-{5-chloro-2-[methyl(4-oxopiperidin-1-yl)phosphoryl]phenyl}-3-(trifluoromethyl)benzenesulfonamide] |  |
| 93 | 15 | CP(=O)(c1ccc(Cl)cc1NS(=O)(=O)c1ccc(Cl)c(C(F)(F)F)c1)N1CCOCC1 (centres unmarked) [Compound 6, 4-Chloro-N-{5-chloro-2-[methyl(morpholin-4-yl)phosphoryl]phenyl}-3-(trifluoromethyl)benzenesulfonamide] |  |
| 92 | 125 | CP(C)(=O)c1ccc(Cl)cc1NS(=O)(=O)c1ccc(Cl)c(C(F)(F)F)c1 [Compound 15, 4-Chloro-N-[5-chloro-2-(dimethylphosphoryl)phenyl]-3-(trifluoromethyl)benzenesulfonamide] |  |
| 84 | 537 | CCCCOP(=O)(c1ccc(Cl)cc1NS(=O)(=O)c1ccc(Cl)c(C(F)(F)F)c1)N1CCC(=O)CC1 (centres unmarked) [Compound 10, Butyl [4-chloro-2-({[4-chloro-3-(trifluoromethyl)phenyl]sulfonyl}amino)phenyl](4-oxopiperidin-1-yl)phosphinate] |  |

| SMILES | CCR2 % ANTAGONISM [1] [%] | IC50 [2] [nM] | IC50 [nM] |
| --- | --- | --- | --- |
| CCOP(C)(=O)c1ccc(Cl)cc1NS(=O)(=O)c1ccc(Cl)c(C(F)(F)F)c1 (centres unmarked) [Compound 1, Ethyl [4-chloro-2-({[4-chloro-3-(trifluoromethyl)phenyl]sulfonyl}amino)phenyl]methylphosphinate] | 80 |  | 159 |
| CCOP(=O)(c1ccc(Cl)cc1NS(=O)(=O)c1ccc(Cl)c(C(F)(F)F)c1)N1CCOCC1 (centres unmarked) [Compound 11, Ethyl [4-chloro-2-({[4-chloro-3-(trifluoromethyl)phenyl]sulfonyl}amino)phenyl]morpholin-4-ylphosphinate] | 65 | 150 |  |
| COP(=O)(c1ccc(Cl)cc1NS(=O)(=O)c1ccc(Cl)c(C(F)(F)F)c1)N1CCC(=O)CC1 (centres unmarked) [Compound 12, Methyl [4-chloro-2-({[4-chloro-3-(trifluoromethyl)phenyl]sulfonyl}amino)phenyl](4-oxopiperidin-1-yl)phosphinate] | 95 | 124 |  |
